What was measured:
[1] = target: GDP-bound HRAS wild-type protein (Homo sapiens, UniProt P01112); assay: Binding to HRAS by surface plasmon resonance (SPR), Single Cycle Kinetics; conditions: SPR; KD ratio class
[2] = test system: human lung cancer strain NCI-H441; assay: cells; conditions: NCI-H441, 96 h, read-out: NCI-H441 IC50 (nM)
[3] = target: GDP-bound NRAS wild-type protein (Homo sapiens, UniProt P01111); assay: Binding to NRAS by surface plasmon resonance (SPR), Single Cycle Kinetics; conditions: SPR; KD ratio class
Sequence of GDP-bound NRAS wild-type protein (P01111 whole entry): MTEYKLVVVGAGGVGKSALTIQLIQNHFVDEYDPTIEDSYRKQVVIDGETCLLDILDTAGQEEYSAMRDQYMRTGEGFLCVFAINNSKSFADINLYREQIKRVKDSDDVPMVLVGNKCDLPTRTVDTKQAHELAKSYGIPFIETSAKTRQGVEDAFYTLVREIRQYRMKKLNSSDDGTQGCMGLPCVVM

Sequence of GDP-bound HRAS wild-type protein (P01112 whole entry): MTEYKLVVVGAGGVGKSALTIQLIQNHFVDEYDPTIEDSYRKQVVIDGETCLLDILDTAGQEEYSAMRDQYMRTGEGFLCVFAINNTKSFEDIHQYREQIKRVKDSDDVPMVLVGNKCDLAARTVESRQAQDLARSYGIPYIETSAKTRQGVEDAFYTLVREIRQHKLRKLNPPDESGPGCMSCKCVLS

| SMILES | IC50 [2] | HRAS/KRAS (ratio of KD value for GDP-bound HRAS wild-type protein to KD value for KRAS) [1] | NRAS/KRAS (ratio of KD value for GDP-bound NRAS wild-type protein to KD value for KRAS) [3] |
| --- | --- | --- | --- |
| CC[C@H](C)[C@@H]1NC(=O)[C@H](CC2CC2)N(C)C(=O)C[C@@H](C(=O)N2CCCC2)N(C)C(=O)[C@H](C2CCCC2)N(C)C(=O)C2(CCCC2)NC(=O)[C@@H]2C[C@@H](C(F)(F)F)CN2C(=O)[C@H](CCc2cc(F)c(C(F)(F)F)c(F)c2)NC(=O)CN(C)C(=O)[C@H](Cc2ccc(F)cc2)N2CC/C=C\C[C@@H](C2=O)N(C)C(=O)CN(C)C1=O [PP1509] | 67.9 nM | A (a compound having 10 or more and less than 20 is denoted as A) | A (a compound having 10 or more and less than 20 is denoted as A) |
| CCO[C@@H]1C[C@H]2C(=O)NC3(CCC3)C(=O)N(C)[C@@H](C3CCCC3)C(=O)N(C)[C@H](C(=O)N3CCCC3)CC(=O)N(C)[C@@H](CC3CCC3)C(=O)N[C@@H]([C@@H](C)CC)C(=O)N(C)CC(=O)N(C)[C@H]3C/C=C\CCN(C3=O)[C@@H](Cc3ccc(C)cc3)C(=O)N(C)CC(=O)N[C@@H](CCc3cc(F)c(C(F)(F)F)c(F)c3)C(=O)N2C1 [PP1425] | 20.2 nM | B (a compound having 3 or more and less than 10 is denoted as B) | A (a compound having 10 or more and less than 20 is denoted as A) |
| CC[C@H](C)[C@@H]1NC(=O)[C@H](CC2CC2)N(C)C(=O)C[C@@H](C(=O)N(C)C)N(C)C(=O)[C@H](C2CCCC2)N(C)C(=O)C2(CCC2)NC(=O)[C@H](CCC(F)F)N(C)C(=O)[C@H](CCc2cc(F)c(C(F)(F)F)c(F)c2)NC(=O)CN(C)C(=O)[C@H](Cc2ccc(C(F)(F)F)cc2)N2CC/C=C\C[C@@H](C2=O)N(C)C(=O)CN(C)C1=O [PP1402] | 82 nM | A (a compound having 10 or more and less than 20 is denoted as A) | A (a compound having 10 or more and less than 20 is denoted as A) |
| CCO[C@@H]1C[C@H]2C(=O)NC3(CC(C)(C)C3)C(=O)N(C)[C@@H](C3CCCC3)C(=O)N(C)[C@H](C(C)C)CC(=O)N(C)[C@@H](CC)C(=O)N[C@@H]([C@@H](C)CC)C(=O)N(C)CC(=O)N(C)[C@H]3C/C=C\CCN(C3=O)[C@@H](Cc3ccc(C(F)(F)F)cc3)C(=O)N(C)CC(=O)N[C@@H](CCc3cc(F)c(C(F)(F)F)c(F)c3)C(=O)N2C1 [PP1588] | 24.2 nM | B (a compound having 3 or more and less than 10 is denoted as B) | B (a compound having 3 or more and less than 10 is denoted as B) |
| CCO[C@@H]1C[C@H]2C(=O)NC3(CCC3)C(=O)N(C)[C@@H](C3CCCC3)C(=O)N(C)[C@H](C(=O)N3CCOCC3)CC(=O)N(C)[C@@H](CC(F)F)C(=O)N[C@@H]([C@@H](C)CC)C(=O)N(C)CC(=O)N(C)[C@H]3C/C=C\CCN(C3=O)[C@@H](Cc3ccc(C(F)(F)F)cc3)C(=O)N(C)CC(=O)N[C@@H](CCc3cc(F)c(C(F)(F)F)c(F)c3)C(=O)N2C1 [PP1285] | 24.6 nM | A (a compound having 10 or more and less than 20 is denoted as A) | AA (a compound having 20 or more is denoted as AA) |
| CCO[C@@H]1C[C@H]2C(=O)NC3(CCC3)C(=O)N(C)[C@@H](C3CCCC3)C(=O)N(C)[C@H](C(=O)N(C)C)CC(=O)N(C)[C@@H](CC(C)C)C(=O)N[C@@H]([C@@H](C)CC)C(=O)N(C)CC(=O)N(C)[C@H]3C/C=C\CCN(C3=O)[C@@H](Cc3ccc(F)cc3)C(=O)N(C)CC(=O)N[C@@H](CCc3ccc(Cl)c(Cl)c3)C(=O)N2C1 [PP1482] | 76.4 nM | B (a compound having 3 or more and less than 10 is denoted as B) | A (a compound having 10 or more and less than 20 is denoted as A) |
| CCO[C@@H]1C[C@H]2C(=O)NC3(CCC3)C(=O)N(C)[C@@H](C(CC)CC)C(=O)N(C)[C@H](C(=O)N(C)C)CC(=O)N(C)[C@@H](CC3CC3)C(=O)N[C@@H]([C@@H](C)CC)C(=O)N(C)CC(=O)N(C)[C@H]3C/C=C\CCN(C3=O)[C@@H](Cc3ccc(C(F)(F)F)cc3)C(=O)N(C)CC(=O)N[C@@H](CCc3ccc(C(F)(F)F)c(OC)c3)C(=O)N2C1 [PP1211] | 26.8 nM | B (a compound having 3 or more and less than 10 is denoted as B) | A (a compound having 10 or more and less than 20 is denoted as A) |
| CCO[C@@H]1C[C@H]2C(=O)NC3(CCC3)C(=O)N(C)[C@@H](C(CC)CC)C(=O)N(C)[C@H](C(=O)N(C)C)CC(=O)N(C)[C@@H](CC3CC3)C(=O)N[C@@H]([C@@H](C)CC)C(=O)N(C)CC(=O)N(C)[C@H]3C/C=C\CCN(C3=O)[C@@H](CC3CCC(F)(F)CC3)C(=O)N(C)CC(=O)N[C@@H](CCc3cc(F)c(C(F)(F)F)c(F)c3)C(=O)N2C1 [PP1429] | 38.7 nM | A (a compound having 10 or more and less than 20 is denoted as A) | AA (a compound having 20 or more is denoted as AA) |
| CCO[C@@H]1C[C@H]2C(=O)NC3(CCC3)C(=O)N(C)[C@@H](C3CCCC3)C(=O)N(C)[C@@H](C(=O)N(C)C)CC(=O)N(C)[C@@H](CC)C(=O)N[C@@H]([C@@H](C)CC)C(=O)N(C)CC(=O)N(C)[C@H]3C/C=C\CCN(C3=O)[C@@H](Cc3ccc(C(F)(F)F)cc3)C(=O)N(C)CC(=O)N[C@@H](CCc3cc(F)c(C(F)(F)F)c(F)c3)C(=O)N2C1 [PP1234] | 398 nM | C (A compound having a KD ratio of 0.1 or more and less than 3 is denoted as C) | B (a compound having 3 or more and less than 10 is denoted as B) |
| CCO[C@@H]1C[C@H]2C(=O)NC3(CCC3)C(=O)N(C)[C@@H](C3CCCC3)C(=O)N(C)[C@H](C)CC(=O)N(C)[C@@H](CC3CC3)C(=O)N[C@@H]([C@@H](C)CC)C(=O)N(C)CC(=O)N(C)[C@H]3C/C=C\CCN(C3=O)[C@@H](Cc3ccc(F)cc3C)C(=O)N(C)CC(=O)N[C@@H](CCc3cc(F)c(C(F)(F)F)c(F)c3)C(=O)N2C1 [PP1489] | 118 nM | B (a compound having 3 or more and less than 10 is denoted as B) | B (a compound having 3 or more and less than 10 is denoted as B) |

The next compounds have a lower IC50 [2] than those just listed; values first:

| IC50 [2] | SMILES | HRAS/KRAS (ratio of KD value for GDP-bound HRAS wild-type protein to KD value for KRAS) [1] | NRAS/KRAS (ratio of KD value for GDP-bound NRAS wild-type protein to KD value for KRAS) [3] |
| --- | --- | --- | --- |
| 16.2 nM | CC[C@H](C)[C@@H]1NC(=O)[C@H](CC2CC2)N(C)C(=O)C[C@@H](C(=O)N(C)C)N(C)C(=O)[C@H](C2CCCC2)N(C)C(=O)C2(CC(C)(C)C2)NC(=O)[C@@H]2C[C@@H](C(F)(F)F)CN2C(=O)[C@H](CCc2cc(F)c(C(F)(F)F)c(F)c2)NC(=O)CN(C)C(=O)[C@H](Cc2ccc(F)cc2)N2CC/C=C\C[C@@H](C2=O)N(C)C(=O)CN(C)C1=O [PP1507] | A (a compound having 10 or more and less than 20 is denoted as A) | A (a compound having 10 or more and less than 20 is denoted as A) |
| 5.4 nM | CCO[C@@H]1C[C@H]2C(=O)NC3(CCC3)C(=O)N(C)[C@@H](C3CCCC3)C(=O)N(C)[C@H](C(=O)N3CCOCC3)CC(=O)N(C)[C@@H](CC)C(=O)N[C@@H]([C@@H](C)CC)C(=O)N3CC[C@H]3C(=O)N(C)[C@H]3C[C@@H](C)[C@@H](C)CN(C3=O)[C@@H](Cc3ccc(C(F)(F)F)cc3)C(=O)N(C)CC(=O)N[C@@H](CCc3ccc(C(F)(F)F)c(Cl)c3)C(=O)N2C1 [PP1357] | B (a compound having 3 or more and less than 10 is denoted as B) | A (a compound having 10 or more and less than 20 is denoted as A) |
| 3.6 nM | CCO[C@@H]1C[C@H]2C(=O)NC3(CCCC3)C(=O)N(C)[C@@H](C3CCCC3)C(=O)N(C)[C@H](C(=O)N(C)C)CC(=O)N(C)[C@@H](CC)C(=O)N[C@@H]([C@@H](C)CC)C(=O)N(C)CC(=O)N(C)[C@H]3C[C@H](C)C(C)CN(C3=O)[C@@H](Cc3ccc(C(F)(F)F)cc3)C(=O)N(C)CC(=O)N[C@@H](CCc3cc(F)c(C(F)(F)F)c(F)c3)C(=O)N2C1 (stereo partly drawn) [PP1347] | B (a compound having 3 or more and less than 10 is denoted as B) | B (a compound having 3 or more and less than 10 is denoted as B) |
| 2.6 nM | CC[C@H](C)[C@@H]1NC(=O)[C@H](CC2CC2)N(C)C(=O)C[C@@H](C(=O)N(C)CC)N(C)C(=O)[C@H](C2CCCC2)N(C)C(=O)C2(CC(C)(C)C2)NC(=O)[C@@H]2C[C@@H](F)CN2C(=O)[C@H](CCc2cc(F)c(C(F)(F)F)c(F)c2)NC(=O)CN(C)C(=O)[C@H](Cc2ccc(C(F)(F)F)cc2)N2CC/C=C\C[C@@H](C2=O)N(C)C(=O)CN(C)C1=O [PP1570] | A (a compound having 10 or more and less than 20 is denoted as A) | AA (a compound having 20 or more is denoted as AA) |
| 2 nM | CC[C@H](C)[C@@H]1NC(=O)[C@H](CC2CCCC2)N(C)C(=O)C[C@@H](C(=O)N(C)C)N(C)C(=O)[C@H](C2CCCC2)N(C)C(=O)C2(CCC2)NC(=O)[C@@H]2C[C@@H](F)CN2C(=O)[C@H](CCc2cc(F)c(C(F)(F)F)c(F)c2)NC(=O)CN(C)C(=O)[C@H](Cc2ccc(C(F)(F)F)cc2)N2CC/C=C\C[C@@H](C2=O)N(C)C(=O)CN(C)C1=O [PP1502] | A (a compound having 10 or more and less than 20 is denoted as A) | A (a compound having 10 or more and less than 20 is denoted as A) |
